From PubChem BioAssay AID1259411 (Chemical Carcinogenesis Research Information System (CCRIS), 2018) come the findings set out here.

Active and inactive are the calls of the source. The rule behind the calls is not given here.

This data set relates to rodent carcinogenicity bioassays, tumor incidence. Briefly: CCRIS carcinogenicity studies. In short, it runs like this:
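NCI-built, expert-reviewed records of carcinogenicity and related test outcomes (mutagenicity, tumor promotion/inhibition) compiled from published and report sources, historical span 1985-2011, not updated.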

`Clc1ccccc1`: the carcinogen call (Species: MOUSE, Strain/Sex: B6C3F1/FEMALE, Route: GAVAGE, Dose: 0, 60, 120 MG/KG IN CORN OIL 5 D/WK FOR 103 WK (STUDY DURATION: 105 WK), Dose: 0, 60, 120 MG/KG IN CORN OIL 5 D/WK FOR 103 WK (STUDY DURATION: 105 WK)) is “inactive; negative”; the carcinogen call (Species: MOUSE, Strain/Sex: B6C3F1/MALE, Route: GAVAGE, Dose: 0, 30, 60 MG/KG IN CORN OIL 5 D/WK FOR 103 WK (STUDY DURATION: 105 WK), Dose: 0, 30, 60 MG/KG IN CORN OIL 5 D/WK FOR 103 WK (STUDY DURATION: 105 WK)) was “inactive; negative”; the carcinogen call (Species: RAT, Strain/Sex: F344/FEMALE, Route: GAVAGE, Dose: 0, 60, 120 MG/KG IN CORN OIL 5 D/WK FOR 103 WK (STUDY DURATION: 105 WK), Dose: 0, 60, 120 MG/KG IN CORN OIL 5 D/WK FOR 103 WK (STUDY DURATION: 105 WK)) was “inactive; negative”; the carcinogen call (Species: RAT, Strain/Sex: F344/MALE, Route: GAVAGE, Dose: 0, 60, 120 MG/KG IN CORN OIL 5 D/WK FOR 103 WK (STUDY DURATION: 105 WK), Dose: 0, 60, 120 MG/KG IN CORN OIL 5 D/WK FOR 103 WK (STUDY DURATION: 105 WK), Tumor Site: Type of Lesion: LIVER: NEOPLASTIC NODULE, NEOPLASTIC NODULE OR CARCINOMA) is on record as “equivocal”.

`ClC1=CC(c2cc(Cl)ccc2Cl)=C(Cl)[C@H]2O[C@@H]12`: the carcinogen call is, setting by setting: (Species: MOUSE, Strain/Sex: STRAIN-A/FEMALE, Route: INTRAPERITONEAL, Dose: 0, 0.1, 0.2 UMOL/UL OF DMSO 5, 10 AND 20 µL GIVEN ON DAYS 4, 8 AND 15 AFTER BIRTH, RESPECTIVELY (STUDY DURATION: 28 WK), Dose: 0, 0.1, 0.2 UMOL/UL OF DMSO 5, 10 AND 20 µL GIVEN ON DAYS 4, 8 AND 15 AFTER BIRTH, RESPECTIVELY (STUDY DURATION: 28 WK)) “inactive; negative”; (Species: MOUSE, Strain/Sex: STRAIN-A/MALE, Route: INTRAPERITONEAL, Dose: 0, 0.1, 0.2 UMOL/UL OF DMSO 5, 10 AND 20 µL GIVEN ON DAYS 4, 8 AND 15 AFTER BIRTH, RESPECTIVELY (STUDY DURATION: 28 WK), Dose: 0, 0.1, 0.2 UMOL/UL OF DMSO 5, 10 AND 20 µL GIVEN ON DAYS 4, 8 AND 15 AFTER BIRTH, RESPECTIVELY (STUDY DURATION: 28 WK)) “inactive; negative”.

On to `CC(O)C(=O)O` (stereo not drawn), for which the carcinogen call runs as follows: (Species: RAT, Strain/Sex: F344/FEMALE, Route: ORAL, Dose: 0, 2.5, 5% IN DRINKING WATER FOR 104 WK (MEAN TOTAL INTAKE 0; 237.7; 412.1 G/RAT) (STUDY DURATION: 113 WK), Dose: 0, 2.5, 5% IN DRINKING WATER FOR 104 WK (MEAN TOTAL INTAKE 0; 237.7; 412.1 G/RAT) (STUDY DURATION: 113 WK)) “inactive; negative”; (Species: RAT, Strain/Sex: F344/MALE, Route: ORAL, Dose: 0, 2.5, 5% IN DRINKING WATER FOR 104 WK (MEAN TOTAL INTAKE 0; 329.4; 625.4 G/RAT) (STUDY DURATION: 113 WK), Dose: 0, 2.5, 5% IN DRINKING WATER FOR 104 WK (MEAN TOTAL INTAKE 0; 329.4; 625.4 G/RAT) (STUDY DURATION: 113 WK)) “inactive; negative”.

As for `Nc1nnc(-c2ccc([N+](=O)[O-])o2)s1`, the carcinogen call (Species: RAT, Route: ORAL, Tumor Site: Type of Lesion: MAMMARY GLAND) was “active; positive”.

Take `NNc1ccc(C(=O)O)cc1`: for the setting “Species: MOUSE, Strain/Sex: STRAIN-A/FEMALE, Route: ORAL, Dose: 0, 1000 PPM IN DRINKING WATER FOR 26 WK (STUDY DURATION: 26 WK)”, the carcinogen call is “inactive; negative”.

`CN(C)C(=O)Nc1ccc(Cl)cc1`: the carcinogen call runs as follows: (Species: MOUSE, Strain/Sex: B6C3F1/FEMALE, Route: ORAL, Dose: 0, 5000, 10000 PPM IN DIET FOR 103 WK (STUDY DURATION: 107 WK), Dose: 0, 5000, 10000 PPM IN DIET FOR 103 WK (STUDY DURATION: 107 WK)) “inactive; negative”; (Species: MOUSE, Strain/Sex: B6C3F1/MALE, Route: ORAL, Dose: 0, 5000, 10000 PPM IN DIET FOR 103 WK (STUDY DURATION: 107 WK), Dose: 0, 5000, 10000 PPM IN DIET FOR 103 WK (STUDY DURATION: 107 WK)) “inactive; negative”; (Species: RAT, Strain/Sex: F344/FEMALE, Route: ORAL, Dose: 0, 750, 1500 PPM IN DIET FOR 103 WK (STUDY DURATION: 106 WK), Dose: 0, 750, 1500 PPM IN DIET FOR 103 WK (STUDY DURATION: 106 WK)) “inactive; negative”; (Species: RAT, Strain/Sex: F344/MALE, Route: ORAL, Dose: 0, 750, 1500 PPM IN DIET FOR 103 WK (STUDY DURATION: 106 WK), Dose: 0, 750, 1500 PPM IN DIET FOR 103 WK (STUDY DURATION: 106 WK), Tumor Site: Type of Lesion: LIVER: NEOPLASTIC NODULE, NEOPLASTIC NODULE OR CARCINOMA, KIDNEY: TUBULAR CELL ADENOMA, TUBULAR CELL ADENOCARCINOMA) “active; positive”.

In the case of `NNc1ccccc1`, the carcinogen call (Species: MOUSE, Route: ORAL, Tumor Site: Type of Lesion: BLOOD VESSELS, LUNG) is “active; positive”.

Turning to `CN(C)/N=N/c1nc[nH]c1C(N)=O`, the carcinogen call runs as follows: (Species: RAT, Strain/Sex: BUFFALO/FEMALE, Route: ORAL, Dose: 0, 500, MG/KG IN DIET FOR 11 WK, Dose: 0, 500, MG/KG IN DIET FOR 11 WK, Tumor Site: Type of Lesion: MAMMARY GLAND: ADENOCARCINOMA, THYMUS GLAND: LYMPHOSARCOMA) “active; positive”; (Species: RAT, Strain/Sex: SPRAGUE-DAWLEY/FEMALE, Route: INTRAPERITONEAL, Dose: 0, 100, 250, 400 MG/RAT IN CITRATE-MANNITOL SOLN, Dose: 0, 100, 250, 400 MG/RAT IN CITRATE-MANNITOL SOLN, Tumor Site: Type of Lesion: MAMMARY GLAND: ADENOCARCINOMA) “active; positive”; (Species: RAT, Strain/Sex: SPRAGUE-DAWLEY/FEMALE, Route: ORAL, Dose: 346, 574, 740 MG/KG (TOTAL DOSE), Dose: 346, 574, 740 MG/KG (TOTAL DOSE), Tumor Site: Type of Lesion: MAMMARY GLAND: ADENOCARCINOMA, CARCINOMA, ADENOFIBROMA, THYMUS GLAND: LYMPHOSARCOMA, SPLEEN: LYMPHOSARCOMA, BRAIN: EPEND, Tumor Site: Type of Lesion: MAMMARY GLAND: ADENOCARCINOMA, CARCINOMA, ADENOFIBROMA, THYMUS GLAND: LYMPHOSARCOMA, SPLEEN: LYMPHOSARCOMA, BRAIN: EPEND) “active; positive”; (Species: RAT, Strain/Sex: SPRAGUE-DAWLEY/MALE, Route: ORAL, Dose: 608, 974 MG/KG (TOTAL DOSE), Tumor Site: Type of Lesion: MAMMARY GLAND: ADENOCARCINOMA, THYMUS GLAND: LYMPHOSARCOMA, SPLEEN: LYMPHOSARCOMA, Tumor Site: Type of Lesion: MAMMARY GLAND: ADENOCARCINOMA, THYMUS GLAND: LYMPHOSARCOMA, SPLEEN: LYMPHOSARCOMA) “active; positive”.

In the case of `CC(C)(C)O`, the carcinogen call (Species: MOUSE, Strain/Sex: B6C3F1/FEMALE, Route: ORAL, Dose: 0, 5, 10, 20 MG/ML IN DRINKING WATER FOR 103 WK (STUDY DURATION: 103 WK), Dose: 0, 5, 10, 20 MG/ML IN DRINKING WATER FOR 103 WK (STUDY DURATION: 103 WK), Tumor Site: Type of Lesion: THYROID GLAND: FOLLICULAR CELL ADENOMA) was “active; positive”; the carcinogen call (Species: MOUSE, Strain/Sex: B6C3F1/MALE, Route: ORAL, Dose: 0, 5, 10, 20 MG/ML IN DRINKING WATER FOR 103 WK (STUDY DURATION: 103 WK), Dose: 0, 5, 10, 20 MG/ML IN DRINKING WATER FOR 103 WK (STUDY DURATION: 103 WK), Tumor Site: Type of Lesion: THYROID GLAND: FOLLICULAR CELL ADENOMA OR CARCINOMA) is listed as “equivocal”; the carcinogen call (Species: RAT, Strain/Sex: F344/FEMALE, Route: ORAL, Dose: 0, 2.5, 5, 10 MG/ML IN DRINKING WATER FOR 103 WK (STUDY DURATION: 103 WK), Dose: 0, 2.5, 5, 10 MG/ML IN DRINKING WATER FOR 103 WK (STUDY DURATION: 103 WK)) was “inactive; negative”; the carcinogen call (Species: RAT, Strain/Sex: F344/MALE, Route: ORAL, Dose: 0, 1.25, 2.5, 5 MG/ML IN DRINKING WATER FOR 103 WK (STUDY DURATION: 103 WK), Dose: 0, 1.25, 2.5, 5 MG/ML IN DRINKING WATER FOR 103 WK (STUDY DURATION: 103 WK), Tumor Site: Type of Lesion: KIDNEY (RENAL TUBULE): ADENOMA OR CARCINOMA) was “active; positive”.
